This assay addresses T1, ITK (Jurkat or Molt4 cells) (Homo sapiens, UniProt Q08881).
T1 construct: either human Jurkat (Clone E6-1 ATCC TIB-152) or Motl4 (ATCC CRL-1552), were plated; endogenous in cells; host or cells: Jurkat Clone E6-1 (ATCC TIB-152) or Molt4 (ATCC CRL-1552)
T1 sequence (Q08881 1-620): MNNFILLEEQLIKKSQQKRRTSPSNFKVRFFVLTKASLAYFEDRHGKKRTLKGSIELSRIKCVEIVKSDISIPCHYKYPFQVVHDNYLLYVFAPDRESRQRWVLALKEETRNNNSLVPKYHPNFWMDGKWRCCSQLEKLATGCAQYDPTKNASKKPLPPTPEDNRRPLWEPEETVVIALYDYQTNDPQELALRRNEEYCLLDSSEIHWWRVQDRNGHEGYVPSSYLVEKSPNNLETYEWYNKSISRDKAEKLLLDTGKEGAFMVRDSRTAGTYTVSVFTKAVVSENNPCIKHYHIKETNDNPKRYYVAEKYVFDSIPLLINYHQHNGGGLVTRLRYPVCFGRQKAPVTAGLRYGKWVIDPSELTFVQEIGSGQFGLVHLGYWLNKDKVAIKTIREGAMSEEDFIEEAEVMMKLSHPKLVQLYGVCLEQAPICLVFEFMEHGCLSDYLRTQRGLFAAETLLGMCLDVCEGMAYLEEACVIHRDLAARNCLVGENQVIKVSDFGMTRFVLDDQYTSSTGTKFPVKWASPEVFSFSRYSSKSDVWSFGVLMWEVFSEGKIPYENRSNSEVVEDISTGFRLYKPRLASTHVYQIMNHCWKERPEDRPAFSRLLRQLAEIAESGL
The experiment in a line: ITK Degradation MSD (Meso Scale Discovery) Assay. It is filed as cell-based. As to conditions: 4 or 6 hrs incubation; for DC50: best fit IC50 used as DC50. On the procedure: Compound dilution series (7-point, 5-fold dilutions in DMSO, rows B—H with replicate in Column 1/2, 3/4, 5/6, 7, and 8 at 2000× the final required concentrations were prepared in 96-well plate (Falcon, cat. no. 353077). Row A, Column 1-8 were control DMSO. The 2000× solutions ranged from 2 mM to 128 nM (final assay concentration range 1 μM to […]). The 2000×solutions were added to cells in 10 μL volume, for a final DMSO concentration of 0.5% and final assay compound concentration of 1×. For the cells, either human Jurkat (Clone E6-1 ATCC TIB-152) or Motl4 (ATCC CRL-1552), were plated at 1×10^6 cells/mL, 100 μL/well ([…]) in complete RPMI (10% FBS, 1% L-glutamine). The cells were incubated with compounds 26-29 for 4 or 6 hrs at 32° C./6% CO2.
Following incubation, plates were centrifuged at 1200 rpm for 5 min. Supernatant was removed and 50 μL of cell lysis buffer (MSD Tris lysis buffer (R60TX), complete Mini EDTA-free protease inhibitor (Sigma 11836170001), Protease Inhibitor Cocktail (Sigma, P2714), Phosphatase Inhibitor Cocktail 2 and 3 (Sigma, P5726 and P0044), Benzonase (Sigma, E1014)) was added to each well. Plate was sealed and shook at 4° C. for 30 min. Plate was centrifuged and 45 μL was removed for plate assay.
Assay plate preparation: Meso Scale Discovery (MSD) multi-array sm spot 96-well plates (Goat anti-Rabbit L^45-RA), were blocked with 3% BSA blocking buffer (3% Bovine Serum Albumin (Sigma A3059)+TBS 0.2% Tween-20) for one hour with gentle rocking at room temperature. Plate was then washed with 200 μL of 1×TBST (TBS 0.2% Tween-20) three times. After the last wash, all liquid was removed and 50 μL per well of capture antibody (abcam ITK Y402-ab32507) was added to plate at a 1:1000 dilution in blocking buffer (see above). Plate was sealed and rocked at room temperature for 2 hrs. Plate was then washed three times with 200 μL of 1×TBST. After the last wash, all liquid was removed and 45 μL of cell lysate (from above) was added to plate. Plate was sealed and rocked overnight at 4° C. The next day, cell lysates were removed, and assay plate was washed three times with 200 μL of 1×TBST. After the last wash, liquid was removed and detection antibody (CST ITK (2F12) #2380) was added at 50 μL per well at a dilution of 1:1000 in blocking buffer. Plate was sealed and rocked at room temperature for 2 hrs. Plate was washed three times with 200 μL of 1×TBST. After the last wash, all liquid was removed, MSD […] sulfo tag (R32AC-1) was diluted to 1:1000 in blocking buffer. 50 μL was added to each well on the plate. Plate was sealed and incubated at room temperature for one hour. Plate was washed three times with 200 μL of 1×TBST. After last wash, all liquid was removed and 150 μL of 1×MSD Read Buffer T (R92PC) was then added to each well for ECL read out.
For reading ECL signal, plate was read on a Meso Scale Discovery (MSD) MESO Sector S 600 plate reader. Percent ITK was then calculated as described below.
Percent ITK remaining per sample was calculated as follows: […]
Using Graphpad Prism, % ITK remaining values were plotted as a function of compound concentration. To determine DC50 and Dmax values, resulting curves were fit to the Prism curve-fitting equation “log(inhibitor) vs response−Variable slope (four parameters)” (reported best fit value IC50 used as DC50).

Broadly, the DC50 is the concentration giving 50% degradation. With `CN[C@@H](C)C(=O)N[C@H](C(=O)N1CCC[C@H]1c1nc(C(=O)c2cccc(OCCOCCOCCOCCOCCC(=O)N3CC([C@@H](c4ccccc4)n4cc(NC(=O)c5n[nH]c6c5C[C@@H]5C(F)(F)[C@]5(C)C6)cn4)C3)c2)cs1)C1CCCCC1` [Compound 6, (4aS,5aR)—N-(1-((S)-(1-(1-(3-(2-((S)-1-((S)-2-cyclohexyl-2-((S)-2-(methylamino)propanamido)acetyl)pyrrolidin-2-yl)thiazole-4-carbonyl)phenoxy)-3,6,9,12-tetraoxapentadecan-15-oyl)azetidin-3-yl)(phenyl)methyl)-1H-pyrazol-4-yl)-5,5-difluoro-5a-methyl-1,4,4a,5,5a,6-hexahydrocyclopropa[f]indazole-3-carboxamide], the 50% degradation concentration (DC50) is 14 nM.

`CN[C@@H](C)C(=O)N[C@H](C(=O)N1CCC[C@H]1c1nc(C(=O)c2cccc(OCCCN3CC([C@@H](c4ccccc4)n4cc(NC(=O)c5n[nH]c6c5C[C@@H]5C(F)(F)[C@]5(C)C6)cn4)C3)c2)cs1)C1CCCCC1` [Compound 8, (4aS,5aR)—N-(1-((S)-(1-(3-(3-(2-((S)-1-((S)-2-cyclohexyl-2-((S)-2-(methylamino)propanamido)acetyl)pyrrolidin-2-yl)thiazole-4-carbonyl)phenoxy)propyl)azetidin-3-yl)(phenyl)methyl)-1H-pyrazol-4-yl)-5,5-difluoro-5a-methyl-1,4,4a,5,5a,6-hexahydrocyclopropa[f]indazole-3-carboxamide] yielded a DC50 of 49 nM.

In turn, `Cc1ncsc1-c1ccc(CNC(=O)[C@@H]2C[C@@H](O)CN2C(=O)[C@@H](NC(=O)CCOCCOCCOCCOCCN2CC([C@@H](c3ccccc3)n3cc(NC(=O)c4n[nH]c5c4C[C@@H]4C(F)(F)[C@]4(C)C5)cn3)C2)C(C)(C)C)cc1` [Compound 12, (4aS,5aR)-5,5-difluoro-N-(1-((S)-(1-((S)-17-((2S,4R)-4-hydroxy-2-((4-(4-methylthiazol-5-yl)benzyl)carbamoyl)pyrrolidine-1-carbonyl)-18,18-dimethyl-15-oxo-3,6,9,12-tetraoxa-16-azanonadecyl)azetidin-3-yl)(phenyl)methyl)-1H-pyrazol-4-yl)-5a-methyl-1,4,4a,5,5a,6-hexahydrocyclopropa[f]indazole-3-carboxamide] showed a DC50 of 114 nM.

`CN[C@@H](C)C(=O)N[C@H](C(=O)N1CCC[C@H]1c1nc(C(=O)c2cccc(OCCOCCN3CC([C@@H](c4ccccc4)n4cc(NC(=O)c5n[nH]c6c5C[C@@H]5C(F)(F)[C@]5(C)C6)cn4)C3)c2)cs1)C1CCCCC1` [Compound 11, (4aS,5aR)—N-(1-((S)-(1-(2-(2-(3-(2-((S)-1-((S)-2-cyclohexyl-2-((S)-2-(methylamino)propanamido)acetyl)pyrrolidin-2-yl)thiazole-4-carbonyl)phenoxy)ethoxy)ethyl)azetidin-3-yl)(phenyl)methyl)-1H-pyrazol-4-yl)-5,5-difluoro-5a-methyl-1,4,4a,5,5a,6-hexahydrocyclopropa[f]indazole-3-carboxamide]: the 50% degradation concentration (DC50) is 10.7 nM.

As usually defined, the Dmax is the greatest extent of degradation seen. `Cc1ncsc1-c1ccc(CNC(=O)[C@@H]2C[C@@H](O)CN2C(=O)[C@@H](NC(=O)C2(F)CC2)C(C)(C)C)c(OCCCCCCCC(=O)N2CC([C@@H](c3ccccc3)n3cc(NC(=O)c4n[nH]c5c4C[C@@H]4C(F)(F)[C@]4(C)C5)cn3)C2)c1` [Compound 20, (4aS,5aR)-5,5-difluoro-N-(1-((S)-(1-(8-(2-(((2S,4R)-1-((S)-2-(1-fluorocyclopropane-1-carboxamido)-3,3-dimethylbutanoyl)-4-hydroxypyrrolidine-2-carboxamido)methyl)-5-(4-methylthiazol-5-yl)phenoxy)octanoyl)azetidin-3-yl)(phenyl)methyl)-1H-pyrazol-4-yl)-5a-methyl-1,4,4a,5,5a,6-hexahydrocyclopropa[f]indazole-3-carboxamide] yielded a maximal degradation (Dmax) of 94.6% and a DC50 of 1.27 nM.

Compound `CN[C@@H](C)C(=O)N[C@H](C(=O)N1CCCC1c1nc(C(=O)c2cccc(OCCOCCOCCOCCOCCOCCC(=O)N3CC([C@@H](c4ccccc4)n4cc(NC(=O)c5n[nH]c6c5C[C@@H]5C(F)(F)[C@]5(C)C6)cn4)C3)c2)cs1)C1CCCCC1` (stereo in doubt) [Compound 4, (4aS,5aR)—N-(1-((S)-(1-(1-(3-(2-((R)-1-((S)-2-cyclohexyl-2-((S)-2-(methylamino)propanamido)acetyl)pyrrolidin-2-yl)thiazole-4-carbonyl)phenoxy)-3,6,9,12,15-pentaoxaoctadecan-18-oyl)azetidin-3-yl)(phenyl)methyl)-1H-pyrazol-4-yl)-5,5-difluoro-5a-methyl-1,4,4a,5,5a,6-hexahydrocyclopropa[f]indazole-3-carboxamide] displayed a DC50 of 13.6 nM.

The compound `Cc1ncsc1-c1ccc(CNC(=O)[C@@H]2C[C@@H](O)CN2C(=O)[C@@H](NC(=O)C2(F)CC2)C(C)(C)C)c(OCC(=O)N2CC([C@@H](c3ccccc3)n3cc(NC(=O)c4n[nH]c5c4C[C@@H]4C(F)(F)[C@]4(C)C5)cn3)C2)c1` [Compound 32, (4aS,5aR)-5,5-difluoro-N-(1-((S)-(1-(2-(2-(((2S,4R)-1-((S)-2-(1-fluorocyclopropane-1-carboxamido)-3,3-dimethylbutanoyl)-4-hydroxypyrrolidine-2-carboxamido)methyl)-5-(4-methylthiazol-5-yl)phenoxy)acetyl)azetidin-3-yl)(phenyl)methyl)-1H-pyrazol-4-yl)-5a-methyl-1,4,4a,5,5a,6-hexahydrocyclopropa[f]indazole-3-carboxamide] showed a maximal degradation (Dmax) of 63.4% and a DC50 of 20.2 nM.

In the case of `CN[C@@H](C)C(=O)N[C@H](C(=O)N1C[C@@H](NC(=O)CCOCCC(=O)N2CC([C@@H](c3ccccc3)n3cc(NC(=O)c4n[nH]c5c4C[C@@H]4C(F)(F)[C@]4(C)C5)cn3)C2)C[C@H]1C(=O)N[C@@H]1CCCc2ccccc21)C1CCCCC1` [Compound 1], the DC50 amounted to 251 nM.

The compound `Cc1ncsc1-c1ccc([C@H](C)NC(=O)[C@@H]2C[C@@H](O)CN2C(=O)[C@@H](NC(=O)CN2CCN(CC(=O)N3CC([C@@H](c4ccccc4)n4cc(NC(=O)c5n[nH]c6c5C[C@@H]5C(F)(F)[C@]5(C)C6)cn4)C3)CC2)C(C)(C)C)cc1` [Compound 24, (4aS,5aR)-5,5-difluoro-N-(1-((S)-(1-(2-(4-(2-(((S)-1-((2S,4R)-4-hydroxy-2-(((S)-1-(4-(4-methylthiazol-5-yl)phenyl)ethyl)carbamoyl)pyrrolidin-1-yl)-3,3-dimethyl-1-oxobutan-2-yl)amino)-2-oxoethyl)piperazin-1-yl)acetyl)azetidin-3-yl)(phenyl)methyl)-1H-pyrazol-4-yl)-5a-methyl-1,4,4a,5,5a,6-hexahydrocyclopropa[f]indazole-3-carboxamide] yielded a Dmax of 93% and a 50% degradation concentration (DC50) of 92.7 nM.
